Reference: patent US20240174680A1, “CDK2 INHIBITORS AND METHODS OF USING THE SAME” (Cedilla Therapeutics, Inc., priority 2021, published 2024)

Each molecule was assayed against CDK2/Cyclin E1 (Homo sapiens, UniProt P24941) (assay: CDK2/Cyclin E1 Caliper LabChip EZ Reader mobility shift assay). Conditions: read-out: Caliper Assay (CDK2/CCNE1): IC50.
Assay type: biochemical
Design: purchased Eurofins 14-475
Description: Inhibition of CDK2/Cyclin E1 activity in the presence of compounds of the present disclosure was evaluated using a Caliper LabChip® EZ Reader mobility shift assay. In the assay, CDK2/Cyclin E1 (Eurofins, 14-475) catalyzed the phosphorylation of a fluorescently tagged peptide 5-FAM-QSPKKG-CONH2 (PerkinElmer, FL Peptide 18) which induced a difference in capillary electrophoresis mobility. The peptide substrate and product were measured, and the conversion ratio was used to determine the inhibition (as % activity and IC50 values) of CDK2/Cyclin E1. Reactions contained 50 mM HEPES pH 7.5, 10 mM MgCl2, 1 mM EDTA, 2 mM DTT, 0.01% Brij35, 0.5 mg/mL BSA, 0.1% DMSO, 2.5 nM CDK2/Cyclin E1, 100 μM ATP, and 1.5 μM fluorescent peptide substrate.
Dose titrations of inhibitors in 100% DMSO were combined with 3.25 nM CDK2/Cyclin E1 and 130 μM of ATP in reaction buffer. The mixtures were incubated for 30 minutes before the addition of fluorescent peptide substrate to initiate the kinase reaction. The final conditions were 2.5 nM CDK2/Cyclin E1, 100 μM ATP, and 1.5 μM fluorescent peptide. The reactions were stopped after 100 minutes with the addition of EDTA (400 mM final EDTA concentration). The stopped reactions were analyzed on a Caliper LabChip® EZ Reader II. The conversion ratios were normalized to yield % activity, plotted against compound concentration, and fit to a four-parameter equation to determine the IC50 for each compound.

IC50 [µM] | Compound
≤ 0.01 | CCOC(=O)[C@H]1CCCN(C(=O)[C@@H](NC(=O)[C@@H]2CN(C(=O)c3cnn(Cc4ccccc4)c3)CC23CN(C(=O)[C@H]2CC2(C)C)C3)[C@@H](C)OCC2CCCCC2)C1 [I-482]
0.1 to 1 | CNC(=O)[C@@H](NC(=O)[C@@H]1CN(C(=O)c2cncs2)CC12CN(C(=O)[C@H]1CC1(C)C)C2)C1(OCc2ccccc2)CC1 [I-375]
1 to 10 | CC(C)(O)C(NC(=O)[C@@H]1CN(C(=O)c2cncs2)CC12CN(C(=O)C(C)(C)C1CC1)C2)c1cccc(C2CCOCC2)n1 (stereo partly drawn) [I-339]
0.01 to 0.1 | CNC(=O)[C@@H](NC(=O)[C@@H]1CN(C(=O)c2cnn(Cc3ccccc3)c2)CC12CN(C(=O)C(C)(C)C)C2)[C@@H](C)OCc1ccccc1 [I-65A]
≤ 0.01 | C[C@@H](OCC1CCCCC1)[C@H](NC(=O)C1CN(C(=O)c2cncs2)CC12CN(C(=O)[C@H]1CC1(C)C)C2)C(=O)N1CCOCC1 (stereo partly drawn) [I-138]
1 to 10 | CC1(C)C[C@@H]1C(=O)N1CC2(CN(C(=O)c3cnn(Cc4ccccc4)c3)C[C@@H]2C(=O)N[C@H]2CCc3cc(Cl)ccc32)C1 [I-133B]
0.01 to 0.1 | C[C@@H]1C[C@H](C)CN(C(=O)[C@@H](NC(=O)C2CN(C(=O)c3cnn(Cc4ccccc4)c3)CC23CN(C(=O)[C@H]2CC2(C)C)C3)[C@@H](C)OCC2CCCCC2)C1 (stereo partly drawn) [I-104]
> 10 | CNC(=O)[C@@H](NC(=O)[C@@H]1CN(C(=O)c2ccccn2)CC12CN(C(=O)[C@H]1CC1(C)C)C2)[C@@H](C)OCc1ccccc1 [I-45A]
≤ 0.01 | COC[C@H]1CCCN(C(=O)[C@@H](NC(=O)[C@@H]2CN(C(=O)c3cncs3)CC23CN(C(=O)[C@H]2CC2(C)C)C3)[C@@H](C)OC(C)C2CCC(F)(F)CC2)C1 (stereo partly drawn) [I-360]
> 10 | CNC(=O)[C@@H](NC(=O)[C@H]1CN(C(=O)c2cnc(Cl)s2)CC12CN(C(=O)[C@H]1CC1(C)C)C2)[C@@H](C)OCC1CCCCC1 [I-189B]
0.01 to 0.1 | [2H]C([2H])([2H])OC[C@H]1CCCN(C(=O)[C@@H](NC(=O)[C@@H]2CN(C(=O)c3cncs3)CC23CN(C(=O)C(C)(C)C2CC2)C3)[C@@H](C)OCC23CCC(CC2)OC3)C1 [I-459]
> 10 | Cc1ccc(CNC(=O)[C@@H]2CN(C(=O)c3cnn(Cc4ccccn4)c3)CC23CN(C(=O)[C@H]2CC2(C)C)C3)nn1 [I-417]
≤ 0.01 | CNC(=O)[C@@H](NC(=O)[C@@H]1CN(C(=O)c2cncs2)CC12CN(C(=O)[C@H]1CC1(C)C)C2)[C@@H](C)OCC1CCC2(CC1)CC2 [I-355]
0.1 to 1 | CNC(=O)[C@@H](NC(=O)[C@@H]1CN(C(=O)c2cnn(Cc3ccccc3)c2)CC12CN(C(=O)C(C)(C)F)C2)[C@@H](C)OCc1ccccc1 [I-90A]
≤ 0.01 | CNC(=O)[C@@H](NC(=O)[C@@H]1CN(C(=O)c2cnc(COC(C)(C)C)s2)CC12CN(C(=O)[C@H]1CC1(C)C)C2)[C@@H](C)OCC1CCCCC1 [I-175A]
0.1 to 1 | CNC(=O)[C@@H](NC(=O)[C@@H]1CN(C(=O)c2cnn(Cc3ccccc3)c2)CC12CN(C(=O)[C@H]1CC1(C)C)C2)[C@@H](C)NCC1CCCCC1 [I-269, (S)-6-(1-benzyl-1H-pyrazole-4-carbonyl)-N-((2S,3R)-3-((cyclohexylmethyl)amino)-1-(methylamino)-1-oxobutan-2-yl)-2-((S)-2,2-dimethylcyclopropane-1-carbonyl)-2,6-diazaspiro[3.4]octane-8-carboxamide]
> 10 | CNC(=O)[C@@H](NC(=O)[C@H]1CN(C(=O)c2cnn(Cc3ccccc3)c2)CC12CN(C(=O)C(C)(C)F)C2)[C@@H](C)OCc1ccccc1 [I-90B]
> 10 | CNC(=O)[C@@H](NC(=O)[C@@H]1CN(C(=O)Cc2cnn(C)c2)CC12CN(C(=O)[C@H]1CC1(C)C)C2)[C@@H](C)OCc1ccccc1 [I-384]
≤ 0.01 | C[C@@H](OCC1CCCCC1)[C@H](NC(=O)[C@@H]1CN(C(=O)c2cnn(Cc3ccccc3)c2)CC12CN(C(=O)[C@H]1CC1(C)C)C2)C(=O)N1CC2(CNC2)C1 [I-240]
> 10 | CNC(=O)[C@@H](NC(=O)[C@H]1CN(C(=O)c2cn[nH]c2)CC12CN(C(=O)CC1CC1)C2)[C@@H](C)OCc1ccccc1 [I-41B]
> 10 | CNC(=O)[C@@H](NC(=O)[C@H]1CN(C(=O)c2cnn(CC(F)(F)F)c2)CC12CN(C(=O)CC1CC1)C2)[C@@H](C)OCc1ccccc1 [I-43B]
> 10 | CNC(=O)[C@@H](NC(=O)[C@H]1CN(C(=O)c2nccs2)CC12CN(C(=O)[C@H]1CC1(C)C)C2)[C@@H](C)OCC1CCCCC1 [I-146]
> 10 | CNC(=O)[C@@H](NC(=O)[C@H]1CN(Cc2ccccn2)CC12CN(C(=O)[C@H]1CC1(C)C)C2)[C@@H](C)OCc1ccccc1 [I-40B]

IC50 [µM] | Compound
0.1 to 1 | CNC(=O)[C@@H](NC(=O)[C@@H]1CN(C(=O)c2cnn(C)c2)CC12CN(C(=O)[C@H]1CC1(C)C)C2)[C@@H](C)OCc1ccccc1 [I-33A]
0.01 to 0.1 | CNC(=O)[C@@H](NC(=O)[C@@H]1CN(C(=O)c2sc(Cl)nc2C)CC12CN(C(=O)[C@H]1CC1(C)C)C2)[C@@H](C)OCC1CCCCC1 [I-208A]
> 10 | CNC(=O)[C@@H](NC(=O)[C@@H]1CN(C(=O)c2cncs2)CC12CN(CC1CCCC1)C2)[C@@H](C)OCC12CCC(CC1)OC2 [I-344, (S)—N-((2S,3R)-3-(2-oxabicyclo[2.2.2]octan-4-ylmethoxy)-1-(methylamino)-1-oxobutan-2-yl)-2-(cyclopentylmethyl)-6-(thiazole-5-carbonyl)-2,6-diazaspiro[3.4]octane-8-carboxamide]
≤ 0.01 | C[C@@H](OCC1CCCCC1)[C@H](NC(=O)[C@@H]1CN(C(=O)c2cnn(Cc3ccccc3)c2)CC12CN(C(=O)[C@H]1CC1(C)C)C2)C(=O)N1CCC(n2cccn2)CC1 [I-439]
0.01 to 0.1 | C[C@@H](OCC1CC(F)(F)C1)[C@@H](CO)NC(=O)[C@@H]1CN(C(=O)c2cncs2)CC12CN(C(=O)[C@H]1CC1(C)C)C2 [I-412]
1 to 10 | CC1(C)C[C@@H]1C(=O)N1CC2(CN(C(=O)c3cnn(Cc4ccccc4)c3)C[C@H]2C(=O)N[C@H]2CCc3cc(Cl)ccc32)C1 [I-133A]
> 10 | CNC(=O)[C@@H](NC(=O)[C@H]1CN(C(=O)c2sc(C)nc2C)CC12CN(C(=O)[C@H]1CC1(C)C)C2)[C@@H](C)OCC1CCCCC1 [I-213B]
0.1 to 1 | CC1(C)C[C@@H]1C(=O)N1CC2(CN(C(=O)c3cnn(Cc4ccccc4)c3)C[C@H]2C(=O)N2CCC[C@H](C(=O)NC3CCCCC3)C2)C1 [I-180]
≤ 0.01 | Cc1nc(C)c(C(=O)N2C[C@@H](C(=O)N[C@H](C(=O)N3CCC4(CC3)COC4)[C@@H](C)OCC34CCC(CC3)OC4)C3(C2)CN(C(=O)[C@H]2CC2(C)C)C3)s1 [I-343]
≤ 0.01 | C[C@@H](OCC1CCCCC1)[C@H](NC(=O)[C@@H]1CN(C(=O)c2cncs2)CC12CN(C(=O)[C@H]1CC1(C)C)C2)C(=O)N1CCOCC1 [I-198]
≤ 0.01 | C[C@@H](OCC1CCCCC1)[C@H](NC(=O)[C@@H]1CN(C(=O)c2cnn(Cc3ccccc3)c2)CC12CN(C(=O)[C@H]1CC1(C)C)C2)C(=O)N1CCC[C@@H](N)C1 [I-218]
1 to 10 | C[C@@H](OCC12CCC(CC1)OC2)[C@H](NC(=O)[C@@H]1CN(C(=O)c2sc(Cl)nc2Cl)CC12CN(C(=O)C(C)(C)C1CC1)C2)C(C)(C)O [I-471]
> 10 | CNC(=O)[C@@H](NC(=O)[C@H]1CN(C(=O)c2ccncc2)CC12CN(C(=O)[C@H]1CC1(C)C)C2)[C@@H](C)OCc1ccccc1 [I-46B]
1 to 10 | CC1(C)C[C@@H]1C(=O)N1CC2(CN(C(=O)c3cnn(Cc4ccccc4)c3)C[C@H]2C(=O)Nc2cccc(Cc3ccccc3)c2)C1 [I-75A]
> 10 | Cc1ccc(CNC(=O)[C@@H]2CN(C(=O)c3cnc(Cc4ccccc4)s3)CC23CN(C(=O)[C@H]2CC2(C)C)C3)nn1 [I-405]
> 10 | CNC(=O)[C@@H](NC(=O)[C@@H]1CN(C(=O)c2cncs2)CC12CN(CC1CCCO1)C2)[C@@H](C)OCC1CCCCC1 (stereo partly drawn) [I-352]
1 to 10 | CNC(=O)[C@@H](NC(=O)[C@H]1CN(C(=O)c2cnn(Cc3ccccc3)c2)CC12CN(C(=O)[C@H]1CC1(C)C)C2)[C@@H](C)OCC(C)C [I-137B]
0.01 to 0.1 | C[C@@H](OCC12CCC(CC1)OC2)[C@H](NC(=O)[C@@H]1CN(C(=O)c2cncs2)CC12CN(C(=O)[C@H]1CC1(C)C)C2)C(=O)N1CCC(OC(F)(F)F)CC1 [I-457]
0.1 to 1 | CNC(=O)[C@@H](NC(=O)[C@@H]1CN(C(=O)c2cnn(Cc3ccccc3)c2)CC12CN(C(=O)N(C)C1CC1)C2)[C@@H](C)OCC1CCCCC1 [I-295]
> 10 | CNC(=O)[C@@H](NC(=O)[C@@H]1CN(C(=O)C2CCNC2)CC12CN(C(=O)[C@H]1CC1(C)C)C2)[C@@H](C)OCc1ccccc1 (stereo partly drawn) [I-70A, (8S)—N-((2S,3R)-3-(benzyloxy)-1-(methylamino)-1-oxobutan-2-yl)-2-((S)-2,2-dimethylcyclopropane-1-carbonyl)-6-(pyrrolidine-3-carbonyl)-2,6-diazaspiro[3.4]octane-8-carboxamide]
≤ 0.01 | C[C@@H](OCC1CCCCC1)[C@H](NC(=O)[C@@H]1CN(C(=O)c2cnn(Cc3ccccc3)c2)CC12CN(C(=O)[C@H]1CC1(C)C)C2)C(=O)N1CC(CN)C1 [I-239]
1 to 10 | CNC(=O)[C@@H](NC(=O)[C@@H]1CN(C(=O)c2cccnc2)CC12CN(C(=O)[C@H]1CC1(C)C)C2)[C@@H](C)OCc1ccccc1 [I-42A]
